Experimental data: patent publication US20060135765A1, “Antineoplastic ether lipid compounds” (priority 2003, published 2006)
Where “and” joins values, the source holds several entries; their conditions need not be identical. Identical values can stand only once. Like-named read-outs stand apart in the source and are kept apart here.

Experiments:
WI38 = test: In vitro growth inhibition (SRB), WI-38 normal fibroblasts; type: cell-based, human; conditions: WI38 normal cell line; 3 days
Description: III. In Vitro Growth Inhibition (GI50) A. Cell line maintenance The following cell lines were selected from the cell bank for screening and GI50 studies: MCF-7: human breast tumor, MCF-7/ADR: MCF-7 adriamycin resistant subline, HT-29: human colon carcinoma, A-549: human non-small cell lung cancer, NIH-3T3: mouse Swiss embryo fibroblast and WI-38: human lung fibroblast, SKMEL-28: human melanoma, Lewis Lung: mouse lung carcinoma, DU-145: prostate carcinoma, B16F10: mouse melanoma, L1210: murine lymphocytic leukemia, P-388: murine leukemia, U-937: human histolytic lymphoma. Except HT-29, WI-38, NIH-3T3 and Lewis Lung which were obtained from the American Type Culture Collection (Rockville, Md.) all the other cell lines were obtained from National Cancer Institute—Frederick Research Facility (Frederick, Md.). […]
(§1) The test compounds were made in-house and the compounds were dissolved PBS or saline at a stock concentration of approximately 20 mM, which is 400 times the desired final maximum test concentration. […] After 3 days of incubation, cell growth was determined.
The SRB assay was performed as described by Monks, A., Scudiero, D., Skehan, P., Shoemaker, R., Paull, K., Vistica, D., Hose, C., Langley, J., Cronise, P., and Vaigro-Wolff, A. Feasibility of a high-flux anticancer drug screen using a diverse panel of cultured human tumor cell lines. […] Bound SRB was solubilized with Tris buffer (10 mM), and the ODs were read using an automated plate reader (Bio-Rad, Model 3550-UV) at 490 nm. Background values were subtracted from the test data, and the data was calculated as a % of control. […] Percentage growth was calculated as described by Peters, A. C, Ahmad, L, Janoff, A. S., Pushkareva, M. Y., and Mayhew, E. Growth Inhibitory efects of liposome-associated 1-o-octadecyl-2-o-metlryl-sn-glycero-3-phosphocholine. […]

[1] = test system: DEVDase activity in Jurkat T Cells; test: DEVDase activity in Jurkat T cells; type: cell-based
Procedure: Suspension cells were seeded at density 3.2×10^5 cells per mL in RPMI-1640 medium (Bio-Whittaker) supplemented with 10% heat inactivated FBS (Bio-Whittaker). Cells were pre-incubated overnight prior to treatment with the ether lipid compounds of the invention. At treatment time cell density was 5×10^5 cells per mL. Cells were incubated with the ether lipid compounds of the invention for various periods of time, usually 6 hours. Cells were collected, washed with 1×DPBS and resuspended in 110 μl of Buffer A (10 mM HEPES-KOH, pH 7.4, 2 mM EDTA, 0.1% CHAPS, 5 mM DTT, 1:100 dilution of protease inhibitors cocktail (SigmaYDTT and protease inhibitors should be added just before use). After 10 min incubation on ice in order to lyse cells, samples were frozen on dry ice/ethanol and kept at −20° C. until analysis. […] At the time of analysis of DEVDase activity frozen pellets were kept on ice until thawed and after vigorous vortexing samples were centrifuged at 14,000 rpm for 6 min. Supernatant was transferred into another tube and 2 μl, in triplicates, were used for protein measurement using Bradford reagent (Bio-Rad).
Measurement of DEVDase activity was carried out in 100 μl volume, where 10 μg of protein was delivered in 50 μl of Buffer A and 40 μM of substrate Ac-DEVD-AMC was also delivered in 50 μl of Buffer A. All measurements were done in triplicates. Reaction was carried out for 1 hour and generation of fluorescent product of reaction (aminomethylcoumarin) was measured by reading fluorescence at 1em 460 nm (1ex 360 nm). Changes in DEVDase activity were calculated after subtraction of background fluorescence of substrate incubated without proteins, and were expressed as percent of control (DEVDase activity in untreated cells). Average of DEVDase activity, calculated from few independent experiments, was used to calculate percent of L-ether lipid-induced DEVDase activity.

[2] = test system: human umbilical vein endothelial cell (HUVEC) line; test: In vitro growth inhibition, HUVEC; type: cell-based
MCF7 = test: In vitro growth inhibition (SRB), MCF7; type: cell-based, human; conditions: MCF7 tumor cell line; 3 days
Description: (§2) III. In Vitro Growth Inhibition (GI50) A. Cell line maintenance The following cell lines were selected from the cell bank for screening and GI50 studies: MCF-7: human breast tumor, MCF-7/ADR: MCF-7 adriamycin resistant subline, HT-29: human colon carcinoma, A-549: human non-small cell lung cancer, NIH-3T3: mouse Swiss embryo fibroblast and WI-38: human lung fibroblast, SKMEL-28: human melanoma, Lewis Lung: mouse lung carcinoma, DU-145: prostate carcinoma, B16F10: mouse melanoma, L1210: murine lymphocytic leukemia, P-388: murine leukemia, U-937: human histolytic lymphoma. […]
as §1
(§3) The SRB assay was performed as described by Monks, A., Scudiero, D., Skehan, P., Shoemaker, R., Paull, K., Vistica, D., Hose, C., Langley, J., Cronise, P., and Vaigro-Wolff, A. Feasibility of a high-flux anticancer drug screen using a diverse panel of cultured human tumor cell lines. […] Bound SRB was solubilized with Tris buffer (10 mM), and the ODs were read using an automated plate reader (Bio-Rad, Model 3550-UV) at 490 nm. Background values were subtracted from the test data, and the data was calculated as a % of control. […]

Washed Human RBCs = test: Hemolysis assay with washed human red blood cells; type: cell-based
Procedure: Venous blood was collected in 10 mL Vacutainer tubes containing EDTA using a 21G needle or larger. […] The blood was transferred from 1 EDTA tube to a 50 mL conical tissue culture tube and the volume was brought up to 50 mL with PBS.
The blood was centrifuged for 10 minutes at 1500 RPM. The supernatant was removed and the blood was resuspended up to 50 mL with PBS. Next the blood was centrifuged for 10 minutes at 1500 RPM.
The supernatant was removed, and 2.0 mL of packed red blood cells was carefully transferred, using positive displacement pipet, into a fresh conical tissue culture tube. Next, 48 mL PBS was added to achieve a 4% washed RBC solution.
Next, 25, 50, 100 and 200 uM stock solutions of test sample in phosphate buffered saline (PBS) as follows:
Next, 0.5 mL of 4% washed RBC was added to 0.5 mL test sample dilutions (in duplicate). The final concentration of test sample was 50% of working stock solution.
The samples were capped or sealed with Parafilm and the samples were gently mixed. The blood was incubated at 37° C. in gentle rotating water bath for 30 minutes. The samples were centrifuged for 10 minutes at 1500 RPM. Next, 200 uL of supernatant was transferred to a cuvette and 1 mL deionized water was added. Absorbance was measured at 550 nm vs. a water blank. Next, H10 and H50 were determined by graphing Absorbance vs. Test Sample Concentration.

HT29 = test: In vitro growth inhibition (SRB), HT29; type: cell-based, human; conditions: HT29 tumor cell line; 3 days
Description: as §2, §1, §3

A549 = test: In vitro growth inhibition (SRB), A549; type: cell-based, human; conditions: A549 tumor cell line; 3 days
Description: as §2, §1, §3

[3] = test system: platelets in dog whole blood; test: Platelet aggregation in dog whole blood (whole blood aggregometer)
Procedure: Briefly, whole citrated blood is diluted 1:2 with sterile saline and placed in a warm chamber with a mini stir bar. An electronic probe, measuring electrical resistance, is inserted in the sample. The aggregometer is calibrated and the baseline is observed to detect any spontaneous aggregation. The test sample is added and allowed to run for at least 6 minutes. If the sample is an agonist the platelets will start to aggregate and stick to the electronic probe causing resistance across the electrodes to increase. This resistance, in ohms, is measured 6 minutes post addition of sample. The test samples are run at 25, 100, 200, 400 and 800 uM and compared to 100 uM L-ET-18-OCH3.
Collection of Blood Sample for in vitro Platelet Aggregation Testing: Venous blood is collected in 4.5 mL Vacutainer tubes containing 0.129 M sodium citrate using a 21G needle or larger. Blood is immediately mixed by gentle inversion 15-20 times and kept at room temperature. Dilution ratio is 1 to 9 (3.8% citrate solution:blood). One (2.0 mL) Vacutainer tube containing EDTA is also collected for platelet counts. Complete blood counts (CBC) are measured on the CDC Technologies Hemavet 1500 to ensure that the test subject's platelets are within normal range. Any vials of hemolytic blood or blood containing any clots should be discarded. Platelet aggregation testing must be completed within 3 hours of blood collection. After this time the ability of platelets to aggregate decreases.
Cloudy solutions were warmed to 50° C. to dissolve and particles. Dilutions were prepared in PBS or saline at 40× concentration. (25 uL test sample are added to 1000 uL diluted blood (1:40)).
Procedure for in vitro Platelet Aggregation Test using CH NO-LOG Aggregometer Model 560-CA: The following protocol was used:

Whole Human Blood = test: Hemolysis assay with whole human blood; type: cell-based
Procedure: Venous blood was collected in 10 mL Vacutainer tubes containing EDTA using a 21G needle or larger.
stock solutions of 20 mM test sample in phosphate buffered saline (PBS) were prepared as follows:
Then 270 uL of whole blood was aliquotted in duplicate mini test tubes using positive displacement pipet. Next, 30 uL of each working stock solution, in duplicate, was added to the whole blood. Next, 30 uL of PBS was added for background control. The samples were capped or sealed with Parafilm and gently mixed. The blood was incubated at 37° C. in gentle rotating water bath for 30 minutes. Final concentration of test sample was 10% of working stock solution.
Total hemolysis samples of 1% and 10% whole blood samples in deionized water were prepared as follows: 1:100=10 uL whole blood+990 uL deionized water 1:10=100 uL whole blood+900 uL deionized water
The samples were freeze thawed 3× in liquid nitrogen then water bath. The samples were then centrifuged 10 minutes at 1500 RPM. Next, 100 uL of supernatant was transferred to a cuvette and […] deionized water was added. The absorbance was read at 550 nm vs. water blank.
H10 and H50 were calculated by graphing Percent Total Hemolysis vs. Test Sample Concentration. The Percent Total Hemolysis=(average o.d of test sample)/(average o.d. of total hemolysis sample)×100

NIH-3T3 = test: In vitro growth inhibition (SRB), NIH-3T3 normal fibroblasts; type: cell-based, mouse; conditions: NIH-3T3 normal cell line; 3 days
Description: as §2, §1, §3

MCF7/ADR = test: In vitro growth inhibition (SRB), MCF7/ADR; type: cell-based, human; conditions: MCF7/ADR tumor cell line; 3 days
Description: as §2, §1, §3

K-562 = test: NCI screen, K-562; type: cell-based, human; conditions: leukemia panel
Procedure: (§4) Candidates deemed suitable for in vivo testing were then synthesized in large scale quantities and some of this material was sent to the NCI's Developmental Therapeutics Program for a battery of growth inhibitory studies against various human tumor cell lines (60 cell lines, 9 different panels). The remainder of the material was used to assess in vivo efficacy using murine tumor models. Additionally, studies were conducted on the lead candidates to discern mechanism of action with particular emphasis on these agents apoptotic ability as measured by caspase 3 activity. The details (materials and methods) for these various assays are described further in the following discussion.
(§5) Ten compounds were also sent to NCT's Drug Discovery Program for screening against numerous human tumor cell lines (9 panels total: renal ovarian, colon, CNS, non-small cell lung, leukemia, breast, melanoma, and prostate). The data are shown in FIGS. 2a-i which also include data regarding D- and L-ET-18-OCH3 (listed as L-EL and D-EL in the figures).

RPMI-8226 = test: NCI screen, RPMI-8226; type: cell-based, human; conditions: leukemia panel
Procedure: as §4, §5

[4] = concentration producing 10% hemolysis
[5] = concentration producing 50% hemolysis

## CCCCCCCCCCCCCCCCCCOCC(COP(=O)([O-])OCC[N+](C)(C)C)OC [L-ET18OCH3, 1-O-octadecyl-2-O-methyl-glycerophosphocholine]
WI38
  GI50: 10 to 12 µM
[1]; [ether lipid] 10 μM
  % L-ET18OCH3 (DEVDase, 6 hrs): 100 ± 8.8 % L-ET18OCH3
[1]; [ether lipid] 20 μM
  % L-ET18OCH3 (DEVDase, 6 hrs): 100 ± 10.4 % L-ET18OCH3
[1]; [ether lipid] 30 μM
  % L-ET18OCH3 (DEVDase, 6 hrs): 100 ± 9.3 % L-ET18OCH3
[2]
  GI50: 1.2 µM

## CCCCCCCCCCCCCCCCCCOCC(CCP(=O)([O-])OCCC[N+](C)(C)C)OC [2(S), 3′-Trimethylaminopropyl-1-O-octadecyl-2-O-methylbutane-4-phospbonate]
MCF7
  GI50: 34.8 µM
Washed Human RBCs; [4]
  H10: 14 µM and 8 µM
Washed Human RBCs; [5]
  H50: 21 µM and 11 µM
HT29
  GI50: 4.8 µM
A549
  GI50: 7.2 µM
WI38
  GI50: < 4 µM
[3]
  platelet aggregation response (in words): no aggregation was noted
[3]; 25 μM
  Relative Platelet Aggregation (Ohms): 0 Ohms
[3]; 100 μM
  Relative Platelet Aggregation (Ohms): 0 Ohms
[3]; 200 μM
  Relative Platelet Aggregation (Ohms): 0 Ohms
[3]; 400 μM
  Relative Platelet Aggregation (Ohms): 0 Ohms
[3]; 800 μM
  Relative Platelet Aggregation (Ohms): 0 Ohms
[3]; listed as 2
  platelet aggregation response (in words): did not evoke a platelet aggregation response
[1]; [ether lipid] 10 μM
  % L-ET18OCH3 (DEVDase, 6 hrs): 57.2 ± 8.4 % L-ET18OCH3
[1]; [ether lipid] 20 μM
  % L-ET18OCH3 (DEVDase, 6 hrs): 70.6 ± 10.8 % L-ET18OCH3
[1]; [ether lipid] 30 μM
  % L-ET18OCH3 (DEVDase, 6 hrs): 76.8 ± 11.1 % L-ET18OCH3
Whole Human Blood; [4]
  H10: 400 µM
Whole Human Blood; [5]
  H50: >2000 µM
NIH-3T3
  GI50: 33.5 µM and 33.6 µM
MCF7/ADR
  GI50: > 40 µM

## CCCCCCCCCCCCCCCCCCOCC(COP(=O)([O-])OCC[N+](C)(C)C)OC [D-ET18OCH3, 1-O-octadecyl-2-O-methyl-glycerophosphocholine]
WI38
  GI50: 10 to 13 µM
[1]; [ether lipid] 10 μM
  % L-ET18OCH3 (DEVDase, 6 hrs): 79.3 ± 9.7 % L-ET18OCH3
[1]; [ether lipid] 20 μM
  % L-ET18OCH3 (DEVDase, 6 hrs): 89.2 ± 12.2 % L-ET18OCH3
[1]; [ether lipid] 30 μM
  % L-ET18OCH3 (DEVDase, 6 hrs): 92.1 ± 11.8 % L-ET18OCH3
K-562
  activity against K-562 (in words): extremely poor activity
RPMI-8226
  activity against RPMI-8226 (in words): extremely poor activity
